Source: ChEMBL document CHEMBL2074397, “Molecular cloning and functional expression of a multispecific organic anion transporter from human kidney” (Am J Physiol, 1999)
Blank lines part the entries; values can stand above or below the compound they belong to.

Experiments:
[1] = target: T1, Solute carrier family 22 member 6 (SLC22A6) (Homo sapiens, UniProt Q4U2R8); assay: TP_TRANSPORTER: inhibition of PAH uptake (PAH: 2 uM, Furosemide: 2000 uM) in Xenopus laevis oocytes; assay type: functional, cell-based, Oocyte; parameters: scale not given: the % may be the effect or the level left; details: Xenopus laevis oocytes expressing SLC22A6, probe PAH, read-out: Activity
T1 sequence (Q4U2R8 whole entry): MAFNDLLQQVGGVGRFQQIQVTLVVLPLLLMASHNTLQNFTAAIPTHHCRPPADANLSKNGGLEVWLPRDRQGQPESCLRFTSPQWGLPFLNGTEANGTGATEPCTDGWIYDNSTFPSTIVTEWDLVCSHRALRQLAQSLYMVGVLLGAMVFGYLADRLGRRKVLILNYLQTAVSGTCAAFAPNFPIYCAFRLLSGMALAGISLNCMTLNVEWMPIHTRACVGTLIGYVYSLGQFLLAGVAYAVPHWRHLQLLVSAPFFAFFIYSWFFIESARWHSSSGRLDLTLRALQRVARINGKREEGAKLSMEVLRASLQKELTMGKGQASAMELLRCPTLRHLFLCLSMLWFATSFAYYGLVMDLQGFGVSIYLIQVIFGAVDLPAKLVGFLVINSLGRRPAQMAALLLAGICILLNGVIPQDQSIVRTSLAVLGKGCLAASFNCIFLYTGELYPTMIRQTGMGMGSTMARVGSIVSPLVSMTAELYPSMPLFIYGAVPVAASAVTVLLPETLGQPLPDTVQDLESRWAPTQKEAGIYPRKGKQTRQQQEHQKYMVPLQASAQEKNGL

[2] = target: T2, Solute carrier family 22 member 6 (Homo sapiens, UniProt Q4U2R8); assay: TP_TRANSPORTER: inhibition of PAH uptake (PAH: 2 uM, Urate: 2000 uM) in Xenopus laevis oocytes; assay type: functional, cell-based; details: oocyte
T2 sequence (Q4U2R8 whole entry): T1 sequence (Q4U2R8 whole entry)

[3] = target: T2, Solute carrier family 22 member 6; assay: TP_TRANSPORTER: inhibition of PAH uptake (PAH: 2 uM, Indomethacin: 2000 uM) in Xenopus laevis oocytes; assay type: functional, cell-based; parameters: scale not given: the % may be the effect or the level left; details: oocyte

activity at 2000 µM [1]: < 0%
Compound: NS(=O)(=O)c1cc(C(=O)O)c(NCc2ccco2)cc1Cl [FUROSEMIDE]

Compound: O=c1[nH]c(=O)c2[nH]c(=O)[nH]c2[nH]1 [URIC ACID]
Activity [2]: inhibitor [(at a rough estimate) 5 % of control]

Activity [3]: < 0%
Compound: COc1ccc2c(c1)c(CC(=O)O)c(C)n2C(=O)c1ccc(Cl)cc1 [INDOMETHACIN]
